Tests used:
LXR target genes = assay: Gene expression of LXR target genes in myotubes by Real-Time RT-PCR; assay type: cell-based, human; conditions: after 22-S-HC treatment; data not shown
[1] = test system: Myotubes from type II diabetic subjects; assay: T0901317 response in myotubes from type II diabetic vs healthy subjects; assay type: cell-based, human; conditions: 1 μM; type II diabetic myotubes compared to myotubes from healthy donors
Method: FIG. 9. […] T0901317 (1 μM) response of (A) palmitate uptake, distribution into cellular lipids and oxidation and (B) glucose uptake (GT), oxidation (GOX) and glycogen synthesis (GS) in myotubes from healthy donors and donors with type 2 diabetes #p≦0.05 vs control myotubes.

Structure (SMILES)	FAS mRNA expression observed on a micro fluid card (LXR target genes)	glucose uptake in response to T0901317 [1]	palmitate oxidation to CO2 in response to T0901317 [1]	uptake and incorporation of palmitate into complex lipids in response to T0901317 [1]
CC(C)CC[C@H](O)[C@@H](C)[C@H]1CC[C@H]2[C@@H]3CC=C4C[C@@H](O)CC[C@]4(C)[C@H]3CC[C@]12C [Example 22-S-HC, 22-S-hydroxycholesterol]	significantly reduced			
O=S(=O)(c1ccccc1)N(CC(F)(F)F)c1ccc(C(O)(C(F)(F)F)C(F)(F)F)cc1 [Example T0901317]		reduced	absence	elevated
